Our source for the IC50 values is patent US20250101034A1, “COMPOSITIONS USEFUL FOR MODULATING SPLICING” (SKYHAWK THERAPEUTICS, INC., priority 2021, published 2025).

The structures appear in SMILES notation.

One experiment relates to total ATXN3 protein. Put plainly: ATXN3 total protein assay (MSD, SK-N-MC cells). It is filed as cell-based, Human. Particulars: 48 hours incubation, read-out: ATXN3 Potency - Protein IC50. How it is done:
Human neuroblastoma SK-N-MC cells were seeded at 10,000 cells/well in 384 well plates one day prior to compound treatment. The concentrations of compounds were tested at appropriate doses ranging from 30 μM to 0.6 nM. After incubation for 48 hours, the cells were lysed with 25 μL of lysis buffer containing protease inhibitors, and total ATXN3 protein levels were assessed by Mesoscale Discovery (MSD) assay developed with one pair of anti-ATXN3 antibodies. The capture and detect antibodies were raised in mouse and rabbit respectively. Anti-rabbit MSD-ST antibody was used for secondary antibody.
ATXN3 recombinant protein was used for standards. The readouts were captured with 35 μL of MSD read buffer and multi-array 384-well high binding plates.

Experiment [1] deals with ATXN3 transcripts containing exon 4 (E4E5). In words: ATXN3 quantitative splicing assay (qPCR, SK-N-MC cells). Type of experiment: cell-based. Particulars: Homo sapiens, 24 h treatment, qPCR E4E5 primers/probe, read-out: ATXN3 Potency - Splicing E4E5 IC50. Here is the method:
Human neuroblastoma SK-N-MC cells were plated in 384-well plates at 20,000 cells/well. Twenty-four hours after plating, cells were treated with compounds for 24 h at appropriate concentrations ranging from 30 μM to 0.6 nM (0.3% DMSO). Treated cells were lysed in 15 μL of lysis buffer, and cDNA was synthesized using the Fast Advanced Cells-to-Ct kit. Two μL of each cDNA was used in qPCR reactions to confirm the exon 4 skipped transcripts of ATXN3. A second set of primers/probe E4E5 was used to detect the transcripts containing exon 4. The third set of primers/probe E8E9 was used to detect total gene level of ATXN3. The qPCR reactions were prepared in 384-well plates in 10 μL volume, using TaqMan™ Fast Advanced Master Mix with primers and probes shown in the table below. Reactions were run in a Quant Studio 6 qPCR instrument with default settings.
The primers and probes are listed below in Table 4.
In general terms: In qPCR the cycle at which signal appears reflects the starting amount.

In the case of `C[C@H](N)Cc1sc2c(NCc3cccs3)cnnc2c1O` [Compound 90, 6-[(2S)-2-aminopropyl]-4-[(thiophen-2-ylmethyl)amino]thieno[3,2-c]pyridazin-7-ol], the IC50 (in the experiment with total ATXN3 protein; in experiment [1]) was 10 to 40 µM in each case.
Take `N[C@@H](COC1CC1)Cc1sc2c(NCc3cccs3)cnnc2c1Br` [Compound 137, 6-[(2R)-2-amino-3-cyclopropoxypropyl]-7-bromo-N-[(thiophen-2-yl)methyl]thieno[3,2-c]pyridazin-4-amine]: the half-inhibitory concentration (IC50) (in the experiment on total ATXN3 protein; in experiment [1]) was 0.501 to 5 µM throughout.
Take `Cc1c(C[C@H](C)N)sc2c(NCc3ccns3)cnnc12` [Compound 18, 6-[(2S)-2-aminopropyl]-7-methyl-N-[(1,2-thiazol-5-yl)methyl]thieno[3,2-c]pyridazin-4-amine]: the IC50 (in the experiment with total ATXN3 protein; in experiment [1]) was 10 to 40 µM each time.
As for `Cc1c(C[C@@H](N)CO)sc2c(NCc3nccs3)cnnc12` [Compound 5, (2R)-2-amino-3-(7-methyl-4-{[(1,3-thiazol-2-yl)methyl]amino}thieno[3,2-c]pyridazin-6-yl)propan-1-ol], the half-maximal inhibitory concentration (IC50) (in the experiment with total ATXN3 protein; in experiment [1]) was 10 to 40 µM each time.
In the case of `Cc1c(CC(N)CF)sc2c(NCc3cccs3)cnnc12` (centres unmarked) [Compound 141, 6-(2-amino-3-fluoropropyl)-7-methyl-N-[(thiophen-2-yl)methyl]thieno[3,2-c]pyridazin-4-amine], the IC50 (in the experiment with total ATXN3 protein; in experiment [1]) was 0.501 to 5 µM each time.
On to `Cc1c(C[C@H](C)N)sc2c(NCc3ccc(F)s3)cnnc12` [Compound 16, 6-[(2S)-2-aminopropyl]-N-[(5-fluorothiophen-2-yl)methyl]-7-methylthieno[3,2-c]pyridazin-4-amine], for which the IC50 (with total ATXN3 protein; in experiment [1]) was 0.501 to 5 µM throughout.
On to `Cc1csc2c(NCc3nccs3)cnnc12` [Compound 12, 7-methyl-N-[(1,3-thiazol-2-yl)methyl]thieno[3,2-c]pyridazin-4-amine], for which the IC50 (in the experiment on total ATXN3 protein; in experiment [1]) was 10 to 40 µM in each case.
Turning to `Cc1c(C[C@@H]2CCN2)sc2c(NCc3cccs3)cnnc12` [Compound 71, 6-{[(2S)-azetidin-2-y1]methyl}-7-methyl-N-[(thiophen-2-yl)methyl]thieno[3,2-c]pyridazin-4-amine], the IC50 (in the experiment with total ATXN3 protein; in experiment [1]) was 10 to 40 µM throughout.
As to `C[C@H](N)Cc1sc2c(NCc3cccs3)cnnc2c1C#N` [Compound 24, (S)-6-(2-aminopropyl)-4-((thiophen-2-ylmethyl)amino)thieno[3,2-c]pyridazine-7-carbonitrile], the concentration for half-maximal inhibition (IC50) (with total ATXN3 protein; in experiment [1]) was 0.501 to 5 µM each time.
On to `Cc1c(CCN)sc2c(NCc3ccco3)cnnc12` [Compound 21, 6-(2-aminoethyl)-N-[(furan-2-yl)methyl]-7-methylthieno[3,2-c]pyridazin-4-amine], for which the half-inhibitory concentration (IC50) (with total ATXN3 protein; in experiment [1]) was 10 to 40 µM throughout.
In the case of `C[C@H](N)Cc1sc2c(NCc3ccco3)cnnc2c1Cl` [Compound 101, 6-[(2S)-2-aminopropyl]-7-chloro-N-[(furan-2-yl)methyl]thieno[3,2-c]pyridazin-4-amine], the IC50 (in the experiment on total ATXN3 protein; in experiment [1]) was 0.101 to 0.5 µM in each case.
For the compound `Cc1c(C[C@@H](N)CC2CC2)sc2c(NCc3ccco3)cnnc12` [Compound 52, 6-[(2S)-2-amino-3-cyclopropylpropyl]-N-[(furan-2-yl)methyl]-7-methylthieno[3,2-c]pyridazin-4-amine], the IC50 (in the experiment on total ATXN3 protein; in experiment [1]) was 0.501 to 5 µM throughout.
As to `Cc1c(C[C@H](C)N)sc2c(NCc3sccc3F)cnnc12` [Compound 10, 6-[(2S)-2-aminopropyl]-N-[(3-fluorothiophen-2-yl)methyl]-7-methylthieno[3,2-c]pyridazin-4-amine], the half-inhibitory concentration (IC50) (in the experiment on total ATXN3 protein; in experiment [1]) was 0.501 to 5 µM throughout.
For `N[C@@H](CO)Cc1sc2c(NCc3ccco3)cnnc2c1Cl` [Compound 96, (2R)-2-amino-3-(7-chloro-4-{[(furan-2-yl)methyl]amino}thieno[3,2-c]pyridazin-6-yl)propan-1-ol], the IC50 (in the experiment on total ATXN3 protein; in experiment [1]) was 0.101 to 0.5 µM throughout.
Turning to `Cc1c(C[C@H](C)N)sc2c(NCc3nccs3)cnnc12` [Compound 6, 6-[(2S)-2-aminopropyl]-7-methyl-N-[(1,3-thiazol-2-yl)methyl]thieno[3,2-c]pyridazin-4-amine], the IC50 (in the experiment on total ATXN3 protein; in experiment [1]) was 0.501 to 5 µM in each case.
Regarding `N[C@@H](CO)Cc1cc2nncc(NCc3cccs3)c2s1` [Compound 53, (2R)-2-amino-3-(4-{[(thiophen-2-yl)methyl]amino}thieno[3,2-c]pyridazin-6-yl)propan-1-ol], the IC50 (with total ATXN3 protein; in experiment [1]) was 0.501 to 5 µM each time.
Take `C[C@H](N)Cc1sc2c(NCc3cccs3)cnnc2c1C1CC1` [Compound 80, 6-[(2S)-2-aminopropyl]-7-cyclopropyl-N-[(thiophen-2-yl)methyl]thieno[3,2-c]pyridazin-4-amine]: the IC50 (in the experiment on total ATXN3 protein; in experiment [1]) was 0.501 to 5 µM in each case.
Take `Cc1c(CC(N)=O)sc2c(NCc3cccs3)cnnc12` [Compound 105, 2-(7-methyl-4-{[(thiophen-2-yl)methyl]amino}thieno[3,2-c]pyridazin-6-yl)acetamide]: the IC50 (in the experiment on total ATXN3 protein; in experiment [1]) was 10 to 40 µM throughout.
Consider `C#Cc1c(C[C@H](C)N)sc2c(NCc3ccco3)cnnc12` [Compound 115, 6-[(2S)-2-aminopropyl]-7-ethynyl-N-[(furan-2-y1)methyl]thieno[3,2-c]pyridazin-4-amine], for which the IC50 (usually the concentration at which inhibition is half-maximal) with total ATXN3 protein was 0.101 to 0.5 µM; in experiment [1] it was 1e-05 to 0.1 µM.
Taken in the same sequence, the figures for `Cc1csc2c(NCc3ccco3)cnnc12` [Compound 11, N-[(furan-2-yl)methyl]-7-methylthieno[3,2-c]pyridazin-4-amine] were 10 to 40 µM and 10 to 40 µM.
In the same order, the values of `Cc1c(C[C@H](C)N)sc2c(NCc3ccsc3F)cnnc12` [Compound 17, 6-[(2S)-2-aminopropyl]-N-[(2-fluorothiophen-3-y1)methyl]-7-methylthieno[3,2-c]pyridazin-4-amine] are 10 to 40 µM and 5 to 10 µM.
In the same order, the values of `Cc1csc2c(NCc3cccs3)c(Br)nnc12` [Compound 87, 3-bromo-7-methyl-N-[(thiophen-2-yl)methyl]thieno[3,2-c]pyridazin-4-amine] are 10 to 40 µM and 10 to 40 µM.
As for `Cc1c(C[C@@H](N)CCF)sc2c(NCc3cccs3)cnnc12` [Compound 48, 6-[(2S)-2-amino-4-fluorobutyl]-7-methyl-N-(thiophen-2-ylmethyl)thieno[3,2-c]pyridazin-4-amine], the half-maximal inhibitory concentration (IC50) (in the experiment with total ATXN3 protein; in experiment [1]) was 0.501 to 5 µM in each case.
With `Cc1c([C@@H](C)[C@H](C)N)sc2c(NCc3cccs3)cnnc12` [Compound 25], the half-inhibitory concentration (IC50) (with total ATXN3 protein; in experiment [1]) was 10 to 40 µM throughout.
For `Cc1c(C[C@@H](N)C2CC2)sc2c(NCc3ccco3)cnnc12` [Compound 64, 6-[(2R)-2-amino-2-cyclopropylethyl]-N-[(furan-2-yl)methyl]-7-methylthieno[3,2-c]pyridazin-4-amine], the IC50 (in the experiment on total ATXN3 protein; in experiment [1]) was 5 to 10 µM throughout.
Turning to `Cc1c(C[C@@H](N)COC2CC2)sc2c(NCc3cccs3)cnnc12` [Compound 131, 6-[(2R)-2-amino-3-cyclopropoxypropyl]-7-methyl-N-[(thiophen-2-yl)methyl]thieno[3,2-c]pyridazin-4-amine], the figures for the concentration for half-maximal inhibition (IC50) (in the experiment with total ATXN3 protein; in experiment [1]) were 5 to 10 µM and 0.501 to 5 µM, respectively.
In the same order, the values of `Cc1csc2c(NC(=O)c3cccs3)cnnc12` [Compound 89, N-{7-methylthieno[3,2-c]pyridazin-4-yl}thiophene-2-carboxamide] are 10 to 40 µM and 10 to 40 µM.
For `N[C@@H](CO)Cc1sc2c(NCc3ccco3)cnnc2c1Br` [Compound 95, (2R)-2-amino-3-(7-bromo-4-{[(furan-2-yl)methyl]amino}thieno[3,2-c]pyridazin-6-yl)propan-1-ol], the results for the IC50 (with total ATXN3 protein; in experiment [1]) were 0.101 to 0.5 µM and 0.501 to 5 µM, respectively.
With `Cc1c(C[C@@H](N)COC(F)(F)F)sc2c(NCc3cccs3)cnnc12` [Compound 132, 6-[(2R)-2-amino-3-(trifluoromethoxy)propyl]-7-methyl-N-[(thiophen-2-yl)methyl]thieno[3,2-c]pyridazin-4-amine], the 50% inhibitory concentration (IC50) (in the experiment on total ATXN3 protein; in experiment [1]) was 10 to 40 µM throughout.
Take `Cc1c(C[C@@H](N)CO)sc2c(NCc3ccsc3)cnnc12` [Compound 7, (2R)-2-amino-3-(7-methyl-4-{[(thiophen-3-yl)methyl]amino}thieno[3,2-c]pyridazin-6-yl)propan-1-ol]: the 50% inhibitory concentration (IC50) (in the experiment on total ATXN3 protein; in experiment [1]) was 0.501 to 5 µM each time.
As for `Cc1c(C[C@@H](N)C[S+](C)[O-])sc2c(NCc3cccs3)cnnc12` (stereo partly drawn) [Compound 59, 6-[(2R)-2-amino-3-methanesulfinylpropyl]-7-methyl-N-[(thiophen-2-yl)methyl]thieno[3,2-c]pyridazin-4-amine], the half-inhibitory concentration (IC50) in the experiment with total ATXN3 protein fell in the range of 10 to 40 µM; in experiment [1], 5 to 10 µM.
